Data published in patent publication US6448032B1, “Human melanocyte stimulating hormone receptor polypeptide and DNA” (priority 1992, dated 2002).
No end group written: not given here.

What was measured:
MSH receptor [1] = target: T1, MSH receptor (Homo sapiens, UniProt Q01726); assay: Inhibition of 125I-NDP-MSH binding to stable COS-7 cell line harbouring pRC/CMV-11D; settings: NDP-MSH radioligand competition
T1 construct: This polypeptide constitutes the entire polypeptide of an MSH receptor; expressed in transfected cells; host or cells: COS-7 cells, transient, plasmid pE-11D (pcDNAI)
Protocol: COS-7 cells (available from ATCC) were grown in Dulbecco's modified Eagle medium with 8% fetal calf serum and non-essential amino acids (Gibco/BRL, 8400 Helgerman Court, Gaithersburg, Md. 20877, USA) in serum free medium, five hours after transfection, serum containing medium was replaced, and cells were cultivated for 48 hours. At this time selection for the calls stably harbouring the pRC/CMV-11D plasmid was begun by growing the cells in neomycin (0.5 mg/ml) containing medium (selection medium). Selection procedure was continued for two weeks, replacing the selection medium every 4th day. surviving cells were collected and maintained in the selection medium. These cells constitute the stable cell line.
To investigate the binding properties cells were scraped off from the culture flask, centrifuged, resuspended in selection medium, plated on 48 well, and allowed to grow for 24 hours. […] Radioactivity was counted and data analyzed by an iterative, non-linear curve fitting programme suitable for radioligand binding analysis. […]

MSH receptor [2] = target: T1, MSH receptor; assay: Inhibition of 125I-NDP-MSH binding to COS-7 cells transfected with MSH receptor cDNA (pE-11D); settings: pE-11D transfected COS-7 cells
Protocol: (§1) Eighty percent confluent cultures were transfected with 1 μg of pE-11D plasmid DNA and 40 μg lipofectin (BRL, 8400 Helgerman Court, Gaithersburg, Md. 20877, USA) in serum free medium. Five hours after transfection, serum containing medium was replaced, and cells were cultivated for 20 hours. Cells were then scraped off, centrifuged, resuspended in serum containing medium, plated on 48 well plates, and allowed to grow for 24 hours. […] Radioactivity was counted and data analyzed by iterative, non-linear curve fitting programme suitable for radioligand binding analysis (see FIG. 6).

MC-2 receptor = target: T2, MC-2 receptor (Homo sapiens, UniProt P33032); assay: Inhibition of 125I-NDP-MSH binding to COS-7 cells transfected with pE-MC-2; settings: pE-MC-2 transfected COS-7 cells
T2 construct: expressed in transfected cells; host or cells: COS-7 cells, transient, plasmid pE-MC-2 (pRC/CMV)
Protocol: as §1, with “pE-MC-2” for “pE-11D”, “9).” for “6).”

[3] = 37° C., 2 hours, Ki from IC-50 by Cheng and Prusoff equation, read-out: Ki for inhibiting 125I-NDP-MSH binding

T1 sequence (Q01726 whole entry): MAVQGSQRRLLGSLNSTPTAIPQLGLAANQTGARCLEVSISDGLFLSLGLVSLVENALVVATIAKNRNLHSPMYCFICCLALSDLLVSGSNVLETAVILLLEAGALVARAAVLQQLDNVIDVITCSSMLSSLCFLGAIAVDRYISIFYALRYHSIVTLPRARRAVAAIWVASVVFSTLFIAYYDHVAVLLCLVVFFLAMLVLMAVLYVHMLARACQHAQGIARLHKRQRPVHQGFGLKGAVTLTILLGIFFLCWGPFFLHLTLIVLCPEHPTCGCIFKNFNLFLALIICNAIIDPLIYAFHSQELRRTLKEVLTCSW
T2 sequence (P33032 whole entry): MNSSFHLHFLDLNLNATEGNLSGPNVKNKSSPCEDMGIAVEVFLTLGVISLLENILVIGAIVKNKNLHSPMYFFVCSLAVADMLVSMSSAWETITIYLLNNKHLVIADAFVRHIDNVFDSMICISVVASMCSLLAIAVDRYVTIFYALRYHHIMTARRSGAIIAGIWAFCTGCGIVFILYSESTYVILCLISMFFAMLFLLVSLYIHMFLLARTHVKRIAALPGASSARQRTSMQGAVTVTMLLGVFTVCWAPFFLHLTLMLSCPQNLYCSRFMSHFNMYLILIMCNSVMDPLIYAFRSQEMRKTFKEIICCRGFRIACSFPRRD

| Compound | binding affinity for the expressed MSH receptor (MSH receptor [1]) | Ki (MSH receptor [2]; [3]) | Ki (MC-2 receptor; [3]) | affinity for the expressed MSH receptor (MSH receptor [2]; 125I-NDP-MSH competition) | affinity for the expressed MC-2 receptor (MC-2 receptor; 125I-NDP-MSH competition) |
| --- | --- | --- | --- | --- | --- |
| CSCC[C@H](N)C(=O)N[C@@H](CCC(=O)O)C(=O)N[C@@H](Cc1c[nH]cn1)C(=O)N[C@@H](Cc1ccccc1)C(=O)N[C@@H](CCCNC(=N)N)C(=O)N[C@@H](Cc1c[nH]c2ccccc12)C(=O)NCC(=O)O [ACTH (4-10)] | very low binding affinity |  |  |  |  |
| SYSMEHFRWGKPVGKKRRPVKVYPNGAEDESAEAFPLEF [ACTH (1-39)] |  | 0.17 ± 0.037 nM | 929 ± 389 nM |  |  |
| β-endorphin: non-melanotropic POMC peptide | no affinity |  |  | no affinity | no affinity |
